Results reported in patent US20260198493A1, “HYDRAZIDE COMPOUND AND AGRICULTURAL/HORTICULTURAL FUNGICIDE” (Nippon Soda Co., Ltd., priority 2022, published 2026).

Columns and labels:
Botrytis cinerea [1] = format: cell-based; settings: 120 h, 25 ppm by volume, Vogel medium, 20° C., five days, dark, read-out: growth inhibition ratio
Fusarium graminearum = assay: microbe, parasite or virus in culture; format: cell-based; settings: 96 h, read-out: growth inhibition ratio
Botrytis cinerea [2] = assay: Control test of cucumber gray mold (sprayed young cucumber seedlings); format: in vivo; settings: 96 h, four days after inoculation; for pest or weed control at 25 ppm: 25 ppm by mass spray; for pest or weed control at 125 ppm: 125 ppm by mass spray
Experimental: Then, the drug liquid was sprayed onto young cucumber seedlings cultivated in a nursery pot (variety “Jihai”-based, cotyledon stage), and then air-dried. […] They were left still in a moist room at 20° C. Four days after inoculation, leaves of the young cucumber seedlings were visually observed, and the control value was calculated from the lesion area ratio in accordance with the following equation. [formula]

Venturia inaequalis = assay: Control test of apple scab disease (sprayed young apple seedlings); format: in vivo; settings: 125 ppm by mass spray, 12 to 14 days after inoculation
[3] = test system: Erysiphe graminis f.sp.tritici; assay: Control test of wheat powdery mildew disease (sprayed young wheat seedlings); format: in vivo; settings: Blumeria graminis, 144 h, 125 ppm by mass spray, six days after inoculation
Colletotrichum acutatum = assay: Fungicidal effect test against fungi causing apple anthracnose; settings: 96 h, read-out: growth inhibition ratio
Glomerella cingulata = assay: Fungicidal effect test against fungi causing grape ripe rot disease; settings: Colletotrichum gloeosporioides, 72 h, read-out: growth inhibition ratio

COC(=O)N(Cc1ccc(C)cc1C)NC(=O)c1cc(C)nnc1Oc1cccc(Br)c1F [b-38]
≥ 75%: inhibition of growth at 25 ppm (Botrytis cinerea [1]) | inhibition of growth at 25 ppm (Fusarium graminearum) | pest or weed control at 25 ppm (Botrytis cinerea [2]) | pest or weed control at 125 ppm (Botrytis cinerea [2]) | pest or weed control at 125 ppm (Venturia inaequalis) | pest or weed control at 125 ppm [3] | inhibition of growth at 25 ppm (Colletotrichum acutatum) | inhibition of growth at 25 ppm (Glomerella cingulata)

COC(=O)N(Cc1ccc(C)cc1C)NC(=O)c1cc(C)nnc1Oc1cccc(Cl)c1 [b-113]
≥ 75%: inhibition of growth at 25 ppm (Botrytis cinerea [1]) | inhibition of growth at 25 ppm (Fusarium graminearum) | pest or weed control at 25 ppm (Botrytis cinerea [2]) | pest or weed control at 125 ppm (Botrytis cinerea [2]) | pest or weed control at 125 ppm (Venturia inaequalis) | pest or weed control at 125 ppm [3] | inhibition of growth at 25 ppm (Colletotrichum acutatum) | inhibition of growth at 25 ppm (Glomerella cingulata)

COC(=O)N(Cc1ccc(OC)cc1C)NC(=O)c1c(C)cncc1Oc1cccc(C2CC2)c1 [b-229]
≥ 75%: inhibition of growth at 25 ppm (Botrytis cinerea [1]) | inhibition of growth at 25 ppm (Fusarium graminearum) | pest or weed control at 25 ppm (Botrytis cinerea [2]) | pest or weed control at 125 ppm (Botrytis cinerea [2]) | pest or weed control at 125 ppm (Venturia inaequalis) | pest or weed control at 125 ppm [3] | inhibition of growth at 25 ppm (Colletotrichum acutatum) | inhibition of growth at 25 ppm (Glomerella cingulata)

COC(=O)N(Cc1ccc(OC)cc1C)NC(=O)c1cc(C)ncc1Oc1cccc(Br)c1 [b-107]
≥ 75%: inhibition of growth at 25 ppm (Botrytis cinerea [1]) | inhibition of growth at 25 ppm (Fusarium graminearum) | pest or weed control at 125 ppm (Botrytis cinerea [2]) | pest or weed control at 125 ppm (Venturia inaequalis) | pest or weed control at 125 ppm [3] | inhibition of growth at 25 ppm (Colletotrichum acutatum) | inhibition of growth at 25 ppm (Glomerella cingulata)

COC(=O)N(Cc1ccc(C)cc1C)NC(=O)c1cc(Cl)nnc1Oc1cccc(C2CC2)c1F [b-28]
≥ 75%: inhibition of growth at 25 ppm (Botrytis cinerea [1]) | inhibition of growth at 25 ppm (Fusarium graminearum) | pest or weed control at 25 ppm (Botrytis cinerea [2]) | pest or weed control at 125 ppm (Botrytis cinerea [2]) | pest or weed control at 125 ppm (Venturia inaequalis) | pest or weed control at 125 ppm [3] | inhibition of growth at 25 ppm (Colletotrichum acutatum) | inhibition of growth at 25 ppm (Glomerella cingulata)

COC(=O)N(Cc1ccc(C)cc1Cl)NC(=O)c1c(Oc2cccc(Cl)c2F)nnc(Cl)c1C [b-176]
≥ 75%: inhibition of growth at 25 ppm (Botrytis cinerea [1]) | inhibition of growth at 25 ppm (Fusarium graminearum) | pest or weed control at 25 ppm (Botrytis cinerea [2]) | pest or weed control at 125 ppm (Botrytis cinerea [2]) | pest or weed control at 125 ppm (Venturia inaequalis) | pest or weed control at 125 ppm [3] | inhibition of growth at 25 ppm (Colletotrichum acutatum) | inhibition of growth at 25 ppm (Glomerella cingulata)

Cc1ccc(CN(NC(=O)c2ccncc2Oc2cccc(C3CC3)c2F)C(=O)OC2COC2)c(C)c1 [b-196]
≥ 75%: inhibition of growth at 25 ppm (Botrytis cinerea [1]) | inhibition of growth at 25 ppm (Fusarium graminearum) | pest or weed control at 25 ppm (Botrytis cinerea [2]) | pest or weed control at 125 ppm (Botrytis cinerea [2]) | pest or weed control at 125 ppm (Venturia inaequalis) | pest or weed control at 125 ppm [3] | inhibition of growth at 25 ppm (Colletotrichum acutatum) | inhibition of growth at 25 ppm (Glomerella cingulata)

COC(=O)N(Cc1ccc(OC)cc1C)NC(=O)c1cc(C)nnc1Oc1cccc(Cl)c1F [b-168]
≥ 75%: inhibition of growth at 25 ppm (Botrytis cinerea [1]) | inhibition of growth at 25 ppm (Fusarium graminearum) | pest or weed control at 125 ppm (Botrytis cinerea [2]) | pest or weed control at 125 ppm (Venturia inaequalis) | pest or weed control at 125 ppm [3] | inhibition of growth at 25 ppm (Colletotrichum acutatum) | inhibition of growth at 25 ppm (Glomerella cingulata)

COC(=O)N(Cc1ccc(C)cc1C)NC(=O)c1c(Br)cncc1Oc1cccc(C2CC2)c1 [b-118]
≥ 75%: inhibition of growth at 25 ppm (Botrytis cinerea [1]) | inhibition of growth at 25 ppm (Fusarium graminearum) | pest or weed control at 25 ppm (Botrytis cinerea [2]) | pest or weed control at 125 ppm (Botrytis cinerea [2]) | pest or weed control at 125 ppm (Venturia inaequalis) | pest or weed control at 125 ppm [3] | inhibition of growth at 25 ppm (Colletotrichum acutatum) | inhibition of growth at 25 ppm (Glomerella cingulata)

COC(=O)N(Cc1ccc(C)cc1C)NC(=O)c1cc(C)nnc1Oc1cccc(F)c1 [b-112]
≥ 75%: inhibition of growth at 25 ppm (Botrytis cinerea [1]) | inhibition of growth at 25 ppm (Fusarium graminearum) | pest or weed control at 125 ppm (Botrytis cinerea [2]) | pest or weed control at 125 ppm (Venturia inaequalis) | pest or weed control at 125 ppm [3] | inhibition of growth at 25 ppm (Colletotrichum acutatum) | inhibition of growth at 25 ppm (Glomerella cingulata)

COC(=O)N(Cc1ccc(OC)cc1C)NC(=O)c1ccncc1Oc1cccc(Br)c1 [b-146]
≥ 75%: inhibition of growth at 25 ppm (Botrytis cinerea [1]) | inhibition of growth at 25 ppm (Fusarium graminearum) | pest or weed control at 125 ppm (Botrytis cinerea [2]) | pest or weed control at 125 ppm (Venturia inaequalis) | pest or weed control at 125 ppm [3] | inhibition of growth at 25 ppm (Colletotrichum acutatum) | inhibition of growth at 25 ppm (Glomerella cingulata)

COC(=O)N(Cc1ccc(OC)cc1Cl)NC(=O)c1cc(C)nnc1Oc1cccc(C2CC2)c1F [b-171]
≥ 75%: inhibition of growth at 25 ppm (Botrytis cinerea [1]) | inhibition of growth at 25 ppm (Fusarium graminearum) | pest or weed control at 25 ppm (Botrytis cinerea [2]) | pest or weed control at 125 ppm (Botrytis cinerea [2]) | pest or weed control at 125 ppm (Venturia inaequalis) | pest or weed control at 125 ppm [3] | inhibition of growth at 25 ppm (Colletotrichum acutatum) | inhibition of growth at 25 ppm (Glomerella cingulata)

COC(=O)N(Cc1ccc(C)cc1C)NC(=O)c1c(F)cncc1Oc1cccc(C2CC2)c1F [b-199]
≥ 75%: inhibition of growth at 25 ppm (Botrytis cinerea [1]) | inhibition of growth at 25 ppm (Fusarium graminearum) | pest or weed control at 25 ppm (Botrytis cinerea [2]) | pest or weed control at 125 ppm (Botrytis cinerea [2]) | pest or weed control at 125 ppm (Venturia inaequalis) | pest or weed control at 125 ppm [3] | inhibition of growth at 25 ppm (Colletotrichum acutatum) | inhibition of growth at 25 ppm (Glomerella cingulata)

COC(=O)N(Cc1ccc(C)cc1C)NC(=O)c1cc(C)ncc1Oc1cccc(Br)c1F [b-88]
≥ 75%: inhibition of growth at 25 ppm (Botrytis cinerea [1]) | inhibition of growth at 25 ppm (Fusarium graminearum) | pest or weed control at 25 ppm (Botrytis cinerea [2]) | pest or weed control at 125 ppm (Botrytis cinerea [2]) | pest or weed control at 125 ppm (Venturia inaequalis) | pest or weed control at 125 ppm [3] | inhibition of growth at 25 ppm (Colletotrichum acutatum) | inhibition of growth at 25 ppm (Glomerella cingulata)

CCc1cncc(Oc2cccc(C3CC3)c2F)c1C(=O)NN(Cc1ccc(C)cc1C)C(=O)OC [b-212]
≥ 75%: inhibition of growth at 25 ppm (Botrytis cinerea [1]) | inhibition of growth at 25 ppm (Fusarium graminearum) | pest or weed control at 25 ppm (Botrytis cinerea [2]) | pest or weed control at 125 ppm (Botrytis cinerea [2]) | pest or weed control at 125 ppm (Venturia inaequalis) | pest or weed control at 125 ppm [3] | inhibition of growth at 25 ppm (Colletotrichum acutatum) | inhibition of growth at 25 ppm (Glomerella cingulata)

Cc1ccc(CN(NC(=O)c2cc(C)nnc2Oc2cccc(C3CC3)c2F)C(=O)OC2CC2)c(C)c1 [b-184, Cyclopropyl 2-(3-(3-cyclopropyl-2-fluorophenoxy)-6-methylpyridazine-4-carbonyl)-1-(2,4-dimethylbenzyl)hydrazine-1-carboxylate]
≥ 75%: inhibition of growth at 25 ppm (Botrytis cinerea [1]) | inhibition of growth at 25 ppm (Fusarium graminearum) | pest or weed control at 25 ppm (Botrytis cinerea [2]) | pest or weed control at 125 ppm (Botrytis cinerea [2]) | pest or weed control at 125 ppm (Venturia inaequalis) | pest or weed control at 125 ppm [3] | inhibition of growth at 25 ppm (Colletotrichum acutatum) | inhibition of growth at 25 ppm (Glomerella cingulata)

COC(=O)N(Cc1ccc(C)cc1C)NC(=O)c1cc(Br)ncc1Oc1cccc(Br)c1F [b-111]
≥ 75%: inhibition of growth at 25 ppm (Botrytis cinerea [1]) | inhibition of growth at 25 ppm (Fusarium graminearum) | pest or weed control at 125 ppm (Botrytis cinerea [2]) | pest or weed control at 125 ppm (Venturia inaequalis) | pest or weed control at 125 ppm [3] | inhibition of growth at 25 ppm (Colletotrichum acutatum) | inhibition of growth at 25 ppm (Glomerella cingulata)

C=Cc1cncc(Oc2cccc(C3CC3)c2F)c1C(=O)NN(Cc1ccc(C)cc1C)C(=O)OC [b-211]
≥ 75%: inhibition of growth at 25 ppm (Botrytis cinerea [1]) | inhibition of growth at 25 ppm (Fusarium graminearum) | pest or weed control at 25 ppm (Botrytis cinerea [2]) | pest or weed control at 125 ppm (Botrytis cinerea [2]) | pest or weed control at 125 ppm [3] | inhibition of growth at 25 ppm (Colletotrichum acutatum) | inhibition of growth at 25 ppm (Glomerella cingulata)

COC(=O)N(Cc1ccc(C)cc1C)NC(=O)c1ccncc1Oc1ccccc1 [b-188]
≥ 75%: inhibition of growth at 25 ppm (Botrytis cinerea [1]) | inhibition of growth at 25 ppm (Fusarium graminearum) | pest or weed control at 25 ppm (Botrytis cinerea [2]) | pest or weed control at 125 ppm (Botrytis cinerea [2]) | pest or weed control at 125 ppm [3] | inhibition of growth at 25 ppm (Colletotrichum acutatum) | inhibition of growth at 25 ppm (Glomerella cingulata)

COC(=O)N(Cc1ccc(C)cc1C)NC(=O)c1cc(C)nnc1Oc1cccc(C#N)c1 [b-37]
≥ 75%: inhibition of growth at 25 ppm (Botrytis cinerea [1]) | inhibition of growth at 25 ppm (Fusarium graminearum) | pest or weed control at 125 ppm (Botrytis cinerea [2]) | pest or weed control at 125 ppm [3] | inhibition of growth at 25 ppm (Colletotrichum acutatum) | inhibition of growth at 25 ppm (Glomerella cingulata)

Cc1ccc(CN(C=O)NC(=O)c2cc(C)nnc2Oc2cccc(C3CC3)c2F)c(C)c1 [b-3, 3-(3-cyclopropyl-2-fluorophenoxy)-N′-(2,4-dimethylbenzyl)-N′-formyl-6-methylpyridazine-4-carbohydrazide]
≥ 75%: inhibition of growth at 25 ppm (Botrytis cinerea [1]) | inhibition of growth at 25 ppm (Fusarium graminearum) | pest or weed control at 25 ppm (Botrytis cinerea [2]) | pest or weed control at 125 ppm (Botrytis cinerea [2]) | pest or weed control at 125 ppm [3] | inhibition of growth at 25 ppm (Colletotrichum acutatum) | inhibition of growth at 25 ppm (Glomerella cingulata)

C#Cc1cccc(Oc2nnc(C)cc2C(=O)NN(Cc2ccc(C)cc2C)C(=O)OC)c1 [b-138]
≥ 75%: inhibition of growth at 25 ppm (Botrytis cinerea [1]) | inhibition of growth at 25 ppm (Fusarium graminearum) | pest or weed control at 25 ppm (Botrytis cinerea [2]) | pest or weed control at 125 ppm (Botrytis cinerea [2]) | pest or weed control at 125 ppm (Venturia inaequalis) | inhibition of growth at 25 ppm (Colletotrichum acutatum) | inhibition of growth at 25 ppm (Glomerella cingulata)

Cc1ccc(CN(C=O)NC(=O)c2cc(C)ncc2Oc2cccc(C3CC3)c2F)c(C)c1 [b-14]
≥ 75%: inhibition of growth at 25 ppm (Botrytis cinerea [1]) | inhibition of growth at 25 ppm (Fusarium graminearum) | pest or weed control at 25 ppm (Botrytis cinerea [2]) | pest or weed control at 125 ppm (Botrytis cinerea [2]) | pest or weed control at 125 ppm [3] | inhibition of growth at 25 ppm (Colletotrichum acutatum) | inhibition of growth at 25 ppm (Glomerella cingulata)

COC(=O)N(Cc1ccc(C)cc1C)NC(=O)c1cc(C)nnc1Oc1cccc(C2CC2)c1F [b-6, Methyl 2-(3-(3-cyclopropyl-2-fluorophenoxy)-6-methylpyridazine-4-carbonyl)-1-(2,4-dimethylbenzyl)hydrazine-1-carboxylate]
≥ 75%: inhibition of growth at 25 ppm (Fusarium graminearum) | pest or weed control at 25 ppm (Botrytis cinerea [2]) | pest or weed control at 125 ppm (Botrytis cinerea [2]) | pest or weed control at 125 ppm (Venturia inaequalis) | pest or weed control at 125 ppm [3]
